{"source": "patent US20190083497A1", "about": "“MODULATION OF BLOOD BRAIN BARRIER PERMEABILITY” (Cornell University, priority 2008, published 2019)", "key": {"Z310 cells": {"test_system": "Z310 cells", "test": "Jurkat cell migration across Z310 choroid plexus cell transwell", "format": "cell-based, murine", "conditions": "Z310 cells on Transwell; migrated cells counted after 24 hours; n=1", "description": "The choroid plexus (“CP”) controls lymphocyte migration into the CNS. The CP expresses the A1 and A2a adenosine receptors. EAE is prevented in mice when A2a adenosine receptor activity is blocked. EAE is enhanced when the A1 adenosine receptor is missing. It was hypothesized that A2a adenosine receptor activation promotes lymphocyte migration across the CP. Z310 cells are a murine choroid plexus cell line. To test the hypothesis, Transwell membranes were seeded with Z310 cells and allowed to grow to confluencey. 2×10^6 Jurkat cells were added to the upper chamber with or with out NECA (n=1, general AR agonist), CCPA (n=1, A1AR agonist), CGS 21680 (n=1, A2AAR agonist), or DMSO vehicle(n=1). After 24 hours, migrated cells in the lower chamber were counted. Values are relative to the number of cells that migrate through non-Z310 seeded transwells and the results are shown in FIG. 12."}, "hCMEC/D3 cells [1]": {"test_system": "hCMEC/D3 cells", "test": "Jurkat cell migration across hCMEC/D3 transwell in vitro BBB", "format": "cell-based, human", "conditions": "hCMEC/D3 on Transwell; migrated cells counted after 24 hours", "excerpt": "The blood brain barrier (BBB) is comprised of endothelial cells. During late stages of EAE, lymphocytes are known to cross the BBB. In order to determine if adenosine receptor stimulation of brain endothelial cells could promote lymphocyte migration through the BBB, an in vitro BBB was established. The human brain endothelial cell line hCMEC/D3 (Weksler et al., “Blood-brain Barrier-specific Properties of a Human Adult Brain Endothelial Cell Line,” J. Neurochem. 19(13):1872-4 (2005); Poller et al., “The Human Brain Endothelial Cell Line hCMEC/D3 as a Human Blood-brain Barrier Model for Drug Transport Studies,” J. Neurochem. 107(5):1358-1368 (2008), which are hereby incorporated by reference in their entirety) was obtained, which has been previously described as having BBB properties.\nhCMEC/D3 cells were seeded onto Transwell and allowed to grow to confluencey. 2×10^6 Jurkat cells were added to the upper chamber with or without NECA (general adenosine receptor [AR] agonist), CCPA (A1AR agonist), CGS 21680 (A2AAR agonist), or DMSO vehicle. After 24 hours, migrated cells in the lower chamber were counted. Values are relative to the number of cells that migrate through non-HCMECD3 seeded transwells."}, "hCMEC/D3 cells [2]": {"test_system": "hCMEC/D3 cells", "test": "cAMP levels in hCMEC/D3 cells (cAMP Screen kit)", "format": "cell-based, human", "conditions": "15 minutes treatment", "description": "Adenosine receptor activation regulates cAMP levels in cells. In order to determine the sensitivity of human brain endothelial cells to adenosine receptor induced cAMP regulation, human brain endothelial cells were cultured with adenosine receptor agonists at various concentrations, followed by cAMP level analysis, as shown in FIG. 13.\nHCMECD3 cells were grown to confluencey on 24 well plates. As adenosine receptor (“AR”) stimulation is known to influence cAMP levels, cells were treated with or without various concentrations of NECA (general AR agonist), CCPA (A1AR agonist), CGS 21680 (A2AAR agonist), DMSO vehicle, or Forksolin (induces cAMP). After 15 minutes, lysis buffer was added and the cells were frozen at −80 C to stop the reaction. Duplicate samples were used for each condition. cAMP levels were assayed using a cAMP Screen kit (Applied Biosystems, Foster City, Calif.)."}, "blood brain barrier": {"test_system": "blood brain barrier", "test": "FITC-Dextran extravasation through the brain endothelium", "format": "in vivo, mouse", "conditions": "30 minutes after IP FITC Dextran", "description": "In order to examine the effects of caffeine, a general adenosine receptor antagonist, on blood brain barrier permeability, mice were fed caffeine for several days and then injected with FITC Dextran, commonly used to assess endothelial permeability.\nMore particularly, mice were fed 0.6 g/l caffeine (Sigma, St. Louis, Mo.) in water or regular water ad lib for five days. Mice were injected IP with FITC Dextran (10,000 MW, Molecular Probes, Eugene, Oreg.) and after 30 minutes mice were perfused with ice cold PBS via the left ventricle. Brains were removed and snap frozen in OCT (Tissue Tek, Torrance, Calif.) and stored at −80° C. until sectioning. Tissue sections (5 μm) were stained with hematoxylin for light microscopy and with DAPI for a fluorescent counterstain."}, "EAE-induced mice": {"test_system": "EAE-induced mice", "test": "EAE induction and scoring (MOG35-55/CFA + pertussis toxin)", "format": "in vivo, mouse", "method": "C57BL/6 and tcrα^−/− mice on the C57BL/6 background were purchased from The Jackson Laboratories. Mice were bred and housed under specific pathogen-free conditions at Cornell University or the University of Turku. For adenosine receptor blockade experiments, mice were given drinking water supplemented with 0.6 g/L of caffeine (Sigma) or 2 mg/kg SCH58261 (1 mg/kg s.c. and 1 mg/kg i.p.) in DMSO (45% vol. in PBS) or 45% DMSO alone starting 1 day before EAE induction and continuing throughout the experiment. All procedures performed on mice were approved by the relevant animal review committee.\nEAE was induced by subjecting mice to the myelin oligodendrocyte glycoprotein (“MOG”) EAE-inducing regimen as described in Swanborg, “Experimental Autoimmune Encephalomyelitis in Rodents as a Model for Human Demyelinating Disease,” Clin. Immunol. […] Briefly, a 1:1 emulsion of MOG35-55 peptide (3 mg/ml in PBS) (Invitrogen) and complete Freund's adjuvant (CFA, Sigma) was injected subcutaneously (50 μl) into each flank. Pertussis toxin (PTX, 20 ng) (Biological Laboratories Inc.) was given intravenously (200 μl in PBS) at the time of immunization and again 2 days later. Mice were scored daily for EAE based on disease symptom severity; 0=no disease, 0.5 -1=weak/limp tail, 2=limp tail and partial hind limb paralysis, 3=total hind limb paralysis, 4=both hind limb and fore limb paralysis, 5=death. Mice with a score of 4 were euthanized.\nWild type mice were given 1 mg/kg of SCH58261 in DMSO or DMSO alone both i.p. and s.c. (for a total of 2 mg/kg) 1 day prior to EAE induction and daily for 30 days throughout the course of the experiment (FIG. 7C)."}}, "data": [{"molecule": "OC[C@H]1O[C@@H](n2cnc3c(NC4CCCC4)nc(Cl)nc32)[C@H](O)[C@@H]1O", "note": "[CCPA]", "values": [{"measurement": "lymphocyte (Jurkat) migration across the CP", "setting": "Z310 cells", "result": "induced lymphocyte migration at high levels"}, {"measurement": "lymphocyte (Jurkat) migration across the in vitro BBB", "setting": "hCMEC/D3 cells [1]", "result": "induced lymphocyte migration at high levels"}, {"measurement": "cAMP levels", "setting": "hCMEC/D3 cells [2]; high levels of the agonist", "result": "increased cAMP levels"}]}, {"molecule": "CCNC(=O)[C@H]1O[C@@H](n2cnc3c(N)nc(NCCc4ccc(CCC(=O)O)cc4)nc32)[C@H](O)[C@@H]1O", "note": "[CGS]", "values": [{"measurement": "lymphocyte (Jurkat) migration across the CP", "setting": "Z310 cells", "result": "promoted lymphocyte migration across the CP"}, {"measurement": "lymphocyte (Jurkat) migration across the in vitro BBB", "setting": "hCMEC/D3 cells [1]", "result": "promoted lymphocyte migration across the in vitro BBB when used at a lower concentration"}, {"measurement": "cAMP levels", "setting": "hCMEC/D3 cells [2]; various concentrations", "result": "slightly increased cAMP levels"}]}, {"molecule": "Cn1c(=O)c2c(ncn2C)n(C)c1=O", "note": "[caffeine]", "values": [{"measurement": "FITC-Dextran extravasation across the blood brain barrier (green color of brain sections)", "setting": "blood brain barrier; CD73-/- mice fed 0.6 g/l caffeine in water for five days", "result": "much less intense green color than wild type mice"}, {"measurement": "FITC-Dextran extravasation across the blood brain barrier (green color of brain sections)", "setting": "blood brain barrier; wild type mice fed 0.6 g/l caffeine in water for five days", "result": "intensely green background"}, {"measurement": "EAE development (mean EAE score)", "setting": "EAE-induced mice; cd73-/- mice, caffeine 0.6 g/L in drinking water from 1 day prior to and throughout the EAE experiment", "result": "did not develop EAE"}, {"measurement": "EAE development (mean EAE score)", "setting": "EAE-induced mice; wild type mice, caffeine 0.6 g/L in drinking water from 1 day prior to and throughout the EAE experiment", "result": "dramatically protected against EAE development"}]}, {"molecule": "PEG-ADA: Pegylated adenosine deaminase (protein, UniProt P56658 2-363, looked up, PEG, Pegylated adenosine deaminase) Adenosine deaminase: AQTPAFNKPKVELHVHLDGAIKPETILYYGRKRGIALPADTPEELQNIIGMDKPLSLPEFLAKFDYYMPAIAGCREAVKRIAYEFVEMKAKDGVVYVEVRYSPHLLANSKVEPIPWNQAEGDLTPDEVVSLVNQGLQEGERDFGVKVRSILCCMRHQPSWSSEVVELCKKYREQTVVAIDLAGDETIEGSSLFPGHVKAYAEAVKSGVHRTVHAGEVGSANVVKEAVDTLKTERLGHGYHTLEDATLYNRLRQENMHFEVCPWSSYLTGAWKPDTEHPVVRFKNDQVNYSLNTDDPLIFKSTLDTDYQMTKNEMGFTEEEFKRLNINAAKSSFLPEDEKKELLDLLYKAYGMPSPASAEQCL", "values": [{"measurement": "EAE development (mean EAE score)", "setting": "EAE-induced mice; wild type mice, 15 units/kg body weight i.p. every 4 days, vs PBS vehicle", "result": "inhibits development of EAE in wild type mice"}]}]}
